Laboratory results taken from patent US20080228408A1, “Method for Determining the State of an Ensemble of Cells and System for the Implementation of the Method” (priority 2005, published 2008).

System: neuronal cells
Test: Toxicogenomic DNA chip test: gene expression level (RES) in cells exposed to the compound compared to unexposed cells
Format: cell-based
Details: Neuron
Excerpt: One wishes to carry out the evaluation of the toxicity of a collection of (15) pesticides using a toxicogenomic analysis of the impact of these pesticides on neuronal cells, according to 4 modes of exposure of the cells to the compounds:
DNA chips built specifically to test the expression level of the 51 genes in cells under study, each chip being configured only for one gene in our case, each chip allowing to carry out for each gene a redundant number of measurements (16) in order to stabilize the levels of expression by analysing the results on average. The spots on the chips are numbered sp1 to sp16.
An automated device D5 allowing, on signal of execution of the C2 test, to take a E1 sample of the cell culture C (non exposed) and a E2 sample of the cell culture C exposed to the compound by the device described previously under the conditions specified with the configuration, then to use the D1 device to select a DNA chip corresponding to the gene specified at the time of the configuration, and to put the samples E1 and E2 thus obtained in the presence of the aforementioned DNA chip according to the methods described in the D1 device,
The result of a test, RES, transmitted by the Resource Unit to the PC, is a raw numerical value which indicates the expression level of the gene indicated in the configuration, for the cell exposed to the compound under the conditions of concentration and exposure duration specified in the configuration, compared to the expression level of the same gene in an unexposed cell of identical nature.
The following results are based on 3 evaluations, each using a different strategy, the target cells being neuronal cells, the mode of exposure being Expo11.
The results presented in table 2 show the values obtained in (052) for the evaluation of Paraquat according to the 4 modes Expo11, Expo12, Expo21, Expo22 carried out. The missing data are not relevant (ranging between 0.5 and 2 strictly).

C[n+]1ccc(-c2cc[n+](C)cc2)cc1 [Paraquat]
A2M gene expression level RES (exposed/unexposed cells) (C1 (IC50), 24 h (Expo11)): 0.43 | AITCH gene expression level RES (exposed/unexposed cells) (C1 (IC50), 24 h (Expo11)): 0.13 | ALB gene expression level RES (exposed/unexposed cells) (C1 (IC50), 24 h (Expo11)): 0.57 | APAF1 gene expression level RES (exposed/unexposed cells) (C1 (IC50), 24 h (Expo11)): 0.47 | AR gene expression level RES (exposed/unexposed cells) (C1 (IC50), 24 h (Expo11)): 0.39 | ATF6 gene expression level RES (exposed/unexposed cells) (C1 (IC50), 24 h (Expo11)): 0.48 | ATM gene expression level RES (exposed/unexposed cells) (C1 (IC50), 24 h (Expo11)): 0.42 | BAX gene expression level RES (exposed/unexposed cells) (C1 (IC50), 24 h (Expo11)): 0.40 | BCL2 gene expression level RES (exposed/unexposed cells) (C1 (IC50), 24 h (Expo11)): 0.44 | BZRP gene expression level RES (exposed/unexposed cells) (C1 (IC50), 24 h (Expo11)): 0.53 | C12ORF8 gene expression level RES (exposed/unexposed cells) (C1 (IC50), 24 h (Expo11)): 0.57 | CALR gene expression level RES (exposed/unexposed cells) (C1 (IC50), 24 h (Expo11)): 0.52 | CDC25C gene expression level RES (exposed/unexposed cells) (C1 (IC50), 24 h (Expo11)): 0.62 | CDK4 gene expression level RES (exposed/unexposed cells) (C1 (IC50), 24 h (Expo11)): 0.59 | CDKN1A gene expression level RES (exposed/unexposed cells) (C1 (IC50), 24 h (Expo11)): 0.46 | CREB1 gene expression level RES (exposed/unexposed cells) (C1 (IC50), 24 h (Expo11)): 0.64 | CTSB gene expression level RES (exposed/unexposed cells) (C1 (IC50), 24 h (Expo11)): 0.51 | CTSD gene expression level RES (exposed/unexposed cells) (C1 (IC50), 24 h (Expo11)): 0.39 | EGF gene expression level RES (exposed/unexposed cells) (C1 (IC50), 24 h (Expo11)): 0.47 | EPHX1 gene expression level RES (exposed/unexposed cells) (C1 (IC50), 24 h (Expo11)): 0.45 | FOS gene expression level RES (exposed/unexposed cells) (C1 (IC50), 24 h (Expo11)): 0.43 | GADD45A gene expression level RES (exposed/unexposed cells) (C1 (IC50), 24 h (Expo11)): 0.54 | GPX1 gene expression level RES (exposed/unexposed cells) (C1 (IC50), 24 h (Expo11)): 0.49 | GSS gene expression level RES (exposed/unexposed cells) (C1 (IC50), 24 h (Expo11)): 0.54 | GSTM3 gene expression level RES (exposed/unexposed cells) (C1 (IC50), 24 h (Expo11)): 0.71 | HOXD1 gene expression level RES (exposed/unexposed cells) (C1 (IC50), 24 h (Expo11)): 0.44 | HSPA5 gene expression level RES (exposed/unexposed cells) (C1 (IC50), 24 h (Expo11)): 0.55 | HSPA9B gene expression level RES (exposed/unexposed cells) (C1 (IC50), 24 h (Expo11)): 0.58 | JUN gene expression level RES (exposed/unexposed cells) (C1 (IC50), 24 h (Expo11)): 0.61 | MDM2 gene expression level RES (exposed/unexposed cells) (C1 (IC50), 24 h (Expo11)): 0.37 | NFKB1 gene expression level RES (exposed/unexposed cells) (C1 (IC50), 24 h (Expo11)): 0.54 | NOS2A gene expression level RES (exposed/unexposed cells) (C1 (IC50), 24 h (Expo11)): 0.54 | PARA gene expression level RES (exposed/unexposed cells) (C1 (IC50), 24 h (Expo11)): 0.38 | PGR gene expression level RES (exposed/unexposed cells) (C1 (IC50), 24 h (Expo11)): 0.42 | RAD50 gene expression level RES (exposed/unexposed cells) (C1 (IC50), 24 h (Expo11)): 0.63 | RAD51 gene expression level RES (exposed/unexposed cells) (C1 (IC50), 24 h (Expo11)): 0.49 | SOD1 gene expression level RES (exposed/unexposed cells) (C1 (IC50), 24 h (Expo11)): 0.76 | TF1 gene expression level RES (exposed/unexposed cells) (C1 (IC50), 24 h (Expo11)): 0.68 | THBS1 gene expression level RES (exposed/unexposed cells) (C1 (IC50), 24 h (Expo11)): 0.39 | TP53 gene expression level RES (exposed/unexposed cells) (C1 (IC50), 24 h (Expo11)): 0.54 | TUBA1 gene expression level RES (exposed/unexposed cells) (C1 (IC50), 24 h (Expo11)): 0.38 | XBP1 gene expression level RES (exposed/unexposed cells) (C1 (IC50), 24 h (Expo11)): 0.50 | A2M gene expression level RES (exposed/unexposed cells) (C1 (IC50), 48 h (Expo12)): 0.03 | AITCH gene expression level RES (exposed/unexposed cells) (C1 (IC50), 48 h (Expo12)): 0.03 | ALB gene expression level RES (exposed/unexposed cells) (C1 (IC50), 48 h (Expo12)): 0.01 | APAF1 gene expression level RES (exposed/unexposed cells) (C1 (IC50), 48 h (Expo12)): 0.05 | AR gene expression level RES (exposed/unexposed cells) (C1 (IC50), 48 h (Expo12)): 0.04 | ATF6 gene expression level RES (exposed/unexposed cells) (C1 (IC50), 48 h (Expo12)): 0.05 | ATM gene expression level RES (exposed/unexposed cells) (C1 (IC50), 48 h (Expo12)): 0.04 | BAX gene expression level RES (exposed/unexposed cells) (C1 (IC50), 48 h (Expo12)): 0.05 | BCL2 gene expression level RES (exposed/unexposed cells) (C1 (IC50), 48 h (Expo12)): 0.04 | BZRP gene expression level RES (exposed/unexposed cells) (C1 (IC50), 48 h (Expo12)): 0.04 | C12ORF8 gene expression level RES (exposed/unexposed cells) (C1 (IC50), 48 h (Expo12)): 0.05 | CALR gene expression level RES (exposed/unexposed cells) (C1 (IC50), 48 h (Expo12)): 0.04 | CDC25C gene expression level RES (exposed/unexposed cells) (C1 (IC50), 48 h (Expo12)): 0.04 | CDK4 gene expression level RES (exposed/unexposed cells) (C1 (IC50), 48 h (Expo12)): 0.06 | CDKN1A gene expression level RES (exposed/unexposed cells) (C1 (IC50), 48 h (Expo12)): 0.02 | CREB1 gene expression level RES (exposed/unexposed cells) (C1 (IC50), 48 h (Expo12)): 0.03 | CTSB gene expression level RES (exposed/unexposed cells) (C1 (IC50), 48 h (Expo12)): 0.05 | CTSD gene expression level RES (exposed/unexposed cells) (C1 (IC50), 48 h (Expo12)): 0.03 | EGF gene expression level RES (exposed/unexposed cells) (C1 (IC50), 48 h (Expo12)): 0.04 | EPHX1 gene expression level RES (exposed/unexposed cells) (C1 (IC50), 48 h (Expo12)): 0.07 | FOS gene expression level RES (exposed/unexposed cells) (C1 (IC50), 48 h (Expo12)): 0.04 | GADD45A gene expression level RES (exposed/unexposed cells) (C1 (IC50), 48 h (Expo12)): 0.04 | GPX1 gene expression level RES (exposed/unexposed cells) (C1 (IC50), 48 h (Expo12)): 0.02 | GSS gene expression level RES (exposed/unexposed cells) (C1 (IC50), 48 h (Expo12)): 0.04 | GSTM3 gene expression level RES (exposed/unexposed cells) (C1 (IC50), 48 h (Expo12)): 0.06 | HOXD1 gene expression level RES (exposed/unexposed cells) (C1 (IC50), 48 h (Expo12)): 0.03 | HSPA5 gene expression level RES (exposed/unexposed cells) (C1 (IC50), 48 h (Expo12)): 0.06 | HSPA9B gene expression level RES (exposed/unexposed cells) (C1 (IC50), 48 h (Expo12)): 0.05 | JUN gene expression level RES (exposed/unexposed cells) (C1 (IC50), 48 h (Expo12)): 0.05 | MDM2 gene expression level RES (exposed/unexposed cells) (C1 (IC50), 48 h (Expo12)): 0.05 | NFKB1 gene expression level RES (exposed/unexposed cells) (C1 (IC50), 48 h (Expo12)): 0.04 | NOS2A gene expression level RES (exposed/unexposed cells) (C1 (IC50), 48 h (Expo12)): 0.04 | PARA gene expression level RES (exposed/unexposed cells) (C1 (IC50), 48 h (Expo12)): 0.04 | PGR gene expression level RES (exposed/unexposed cells) (C1 (IC50), 48 h (Expo12)): 0.04 | RAD50 gene expression level RES (exposed/unexposed cells) (C1 (IC50), 48 h (Expo12)): 0.06 | RAD51 gene expression level RES (exposed/unexposed cells) (C1 (IC50), 48 h (Expo12)): 0.05 | SOD1 gene expression level RES (exposed/unexposed cells) (C1 (IC50), 48 h (Expo12)): 0.05 | TF1 gene expression level RES (exposed/unexposed cells) (C1 (IC50), 48 h (Expo12)): 0.05 | THBS1 gene expression level RES (exposed/unexposed cells) (C1 (IC50), 48 h (Expo12)): 0.05 | TP53 gene expression level RES (exposed/unexposed cells) (C1 (IC50), 48 h (Expo12)): 0.05 | TUBA1 gene expression level RES (exposed/unexposed cells) (C1 (IC50), 48 h (Expo12)): 0.04 | XBP1 gene expression level RES (exposed/unexposed cells) (C1 (IC50), 48 h (Expo12)): 0.05 | A2M gene expression level RES (exposed/unexposed cells) (C2 (IC50/10), 24 h (Expo21)): 0.14 | AITCH gene expression level RES (exposed/unexposed cells) (C2 (IC50/10), 24 h (Expo21)): 0.08
